Results taken from ChEMBL document CHEMBL3885861, “Open TG-GATES”.

Species: Rattus norvegicus
Experiment: Open TG-GATES - Regimen: Daily Repeat
Type: toxicity, organism-based, Sprague-Dawley
Design: regimen Daily Repeat, gender Male, age 6 weeks
Conditions: in vivo, po, route gavage; for APTT / Bas / Eos / Fbg / Hb / Ht / Lym / MCH / MCHC / MCV / Mono / Neu / PT / Plat / RBC / Ret / WBC: tissue Blood; for KIDNEY_L / KIDNEY_R / KIDNEY_TOTAL: tissue Kidney; for LIVER: tissue Liver; for A/G / ALP / ALT / AST / BUN / CRE / Ca / Cl / DBIL / GLC / IP / K / LDH / Na / PL / RALB / TBIL / TC / TG / TP / gamma-GTP: tissue Plasma
[1] = 0 mg/kg, 72 h, dose level Control, time 3 day
[2] = 0 mg/kg, […], dose level Control, time 7 day
[3] = 0 mg/kg, […], dose level Control, time 14 day
[4] = 0 mg/kg, […], dose level Control, time 28 day
[5] = 6 mg/kg, 72 h, dose level Low, time 3 day
[6] = 6 mg/kg, […], dose level Low, time 7 day
[7] = 6 mg/kg, […], dose level Low, time 14 day
[8] = 6 mg/kg, […], dose level Low, time 28 day

CC(C)NNC(=O)c1ccncc1 [IPRONIAZID]
TERMINAL_BW [1]: 213.5 g
APTT [1]: 21.8 s
Bas [1]: 0%
Eos [1]: 1%
Fbg [1]: 301.6 mg/dL
Hb [1]: 13.2 g/dL
Ht [1]: 38.2%
Lym [1]: 78.8%
MCH [1]: 21.2 pg
MCHC [1]: 34.5%
MCV [1]: 61.3 fL
Mono [1]: 2.8%
Neu [1]: 16.4%
PT [1]: 16 s
Plat [1]: 127.9 x10_4/uL
RBC [1]: 622.8 x10_4/ul
Ret [1]: 7.5%
WBC [1]: 99.6 x10_2/uL
KIDNEY_L [1]: 1 g
KIDNEY_R [1]: 1 g
KIDNEY_TOTAL [1]: 1.9 g
LIVER [1]: 10.5 g
A/G [1]: 1.3
ALP [1]: 1294.6 IU/L
ALT [1]: 41 IU/L
AST [1]: 70.2 IU/L
BUN [1]: 18 mg/dL
CRE [1]: 0.2 mg/dL
Ca [1]: 10.8 mg/dL
Cl [1]: 106.6 meq/L
DBIL [1]: 0 mg/dL
GLC [1]: 188.8 mg/dL
IP [1]: 7.2 mg/dL
K [1]: 4.6 meq/L
LDH [1]: 261.8 IU/L
Na [1]: 141.8 meq/L
PL [1]: 159.6 mg/dL
RALB [1]: 3.1 g/dL
TBIL [1]: 0.004 mg/dL
TC [1]: 83.8 mg/dL
TG [1]: 100.4 mg/dL
TP [1]: 5.5 g/dL
gamma-GTP [1]: 1 IU/L
TERMINAL_BW [2]: 239.8 g
TERMINAL_BW [3]: 277.2 g
TERMINAL_BW [4]: 363.7 g
APTT [2]: 22.5 s
Bas [2]: 0%
Eos [2]: 0.8%
Fbg [2]: 304.6 mg/dL
Hb [2]: 13.5 g/dL
Ht [2]: 37.7%
Lym [2]: 82.4%
MCH [2]: 21 pg
MCHC [2]: 35.7%
MCV [2]: 58.6 fL
Mono [2]: 2.2%
Neu [2]: 13.8%
PT [2]: 15.4 s
Plat [2]: 110.1 x10_4/uL
RBC [2]: 642.8 x10_4/ul
Ret [2]: 6.4%
WBC [2]: 110.4 x10_2/uL
APTT [3]: 22.8 s
Bas [3]: 0%
Eos [3]: 1%
Fbg [3]: 301.2 mg/dL
Hb [3]: 13.6 g/dL
Ht [3]: 39.5%
Lym [3]: 82.8%
MCH [3]: 20 pg
MCHC [3]: 34.4%
MCV [3]: 58.1 fL
Mono [3]: 2.4%
Neu [3]: 13.4%
PT [3]: 16 s
Plat [3]: 110.6 x10_4/uL
RBC [3]: 679.4 x10_4/ul
Ret [3]: 5.1%
WBC [3]: 106.6 x10_2/uL
APTT [4]: 25.2 s
Bas [4]: 0%
Eos [4]: 0.8%
Fbg [4]: 318.6 mg/dL
Hb [4]: 14.5 g/dL
Ht [4]: 40.9%
Lym [4]: 81.6%
MCH [4]: 19.7 pg
MCHC [4]: 35.6%
MCV [4]: 55.2 fL
Mono [4]: 1.8%
Neu [4]: 14.6%
PT [4]: 15.8 s
Plat [4]: 108.3 x10_4/uL
RBC [4]: 741.4 x10_4/ul
Ret [4]: 3%
WBC [4]: 103.1 x10_2/uL
KIDNEY_L [2]: 1 g
KIDNEY_R [2]: 1 g
KIDNEY_TOTAL [2]: 2 g
KIDNEY_L [3]: 1.1 g
KIDNEY_R [3]: 1.1 g
KIDNEY_TOTAL [3]: 2.1 g
KIDNEY_L [4]: 1.4 g
KIDNEY_R [4]: 1.4 g
KIDNEY_TOTAL [4]: 2.8 g
LIVER [2]: 11.2 g
LIVER [3]: 11.8 g
LIVER [4]: 15.8 g
A/G [2]: 1.1
ALP [2]: 1693 IU/L
ALT [2]: 46.6 IU/L
AST [2]: 77.8 IU/L
BUN [2]: 19.2 mg/dL
CRE [2]: 0.2 mg/dL
Ca [2]: 10.6 mg/dL
Cl [2]: 106.4 meq/L
DBIL [2]: 0 mg/dL
GLC [2]: 198.4 mg/dL
IP [2]: 6.8 mg/dL
K [2]: 4 meq/L
LDH [2]: 220.4 IU/L
Na [2]: 141.2 meq/L
PL [2]: 156.2 mg/dL
RALB [2]: 2.9 g/dL
TBIL [2]: 0.002 mg/dL
TC [2]: 77.4 mg/dL
TG [2]: 110.6 mg/dL
TP [2]: 5.5 g/dL
gamma-GTP [2]: 1.2 IU/L
A/G [3]: 1.1
ALP [3]: 1298.6 IU/L
ALT [3]: 35.8 IU/L
AST [3]: 68.4 IU/L
BUN [3]: 20.2 mg/dL
CRE [3]: 0.2 mg/dL
Ca [3]: 10.5 mg/dL
Cl [3]: 107.4 meq/L
DBIL [3]: 0 mg/dL
GLC [3]: 187.4 mg/dL
IP [3]: 5.9 mg/dL
K [3]: 4 meq/L
LDH [3]: 176.8 IU/L
Na [3]: 141.8 meq/L
PL [3]: 135.2 mg/dL
RALB [3]: 3 g/dL
TBIL [3]: 0.006 mg/dL
TC [3]: 66.8 mg/dL
TG [3]: 126.6 mg/dL
TP [3]: 5.7 g/dL
gamma-GTP [3]: 1.6 IU/L
A/G [4]: 1.1
ALP [4]: 1067.8 IU/L
ALT [4]: 38.8 IU/L
AST [4]: 65.4 IU/L
BUN [4]: 17.4 mg/dL
CRE [4]: 0.2 mg/dL
Ca [4]: 10.7 mg/dL
Cl [4]: 105.2 meq/L
DBIL [4]: 0.002 mg/dL
GLC [4]: 190.8 mg/dL
IP [4]: 6.6 mg/dL
K [4]: 4 meq/L
LDH [4]: 171.2 IU/L
Na [4]: 142 meq/L
PL [4]: 142.4 mg/dL
RALB [4]: 3.2 g/dL
TBIL [4]: 0.014 mg/dL
TC [4]: 70.8 mg/dL
TG [4]: 137.6 mg/dL
TP [4]: 6.1 g/dL
gamma-GTP [4]: 1.6 IU/L
TERMINAL_BW [5]: 205.6 g
APTT [5]: 20.8 s
Bas [5]: 0%
Eos [5]: 1%
Fbg [5]: 309.2 mg/dL
Hb [5]: 13.5 g/dL
Ht [5]: 39.1%
Lym [5]: 78.4%
MCH [5]: 21.3 pg
MCHC [5]: 34.4%
MCV [5]: 61.9 fL
Mono [5]: 2.2%
Neu [5]: 17.2%
PT [5]: 16.2 s
Plat [5]: 123.8 x10_4/uL
RBC [5]: 632.6 x10_4/ul
Ret [5]: 6.8%
WBC [5]: 92 x10_2/uL
KIDNEY_L [5]: 0.9 g
KIDNEY_R [5]: 0.9 g
KIDNEY_TOTAL [5]: 1.8 g
LIVER [5]: 9.6 g
A/G [5]: 1.4
ALP [5]: 1667 IU/L
ALT [5]: 37.4 IU/L
AST [5]: 73.8 IU/L
BUN [5]: 17.2 mg/dL
CRE [5]: 0.2 mg/dL
Ca [5]: 10.6 mg/dL
Cl [5]: 108.8 meq/L
DBIL [5]: 0 mg/dL
GLC [5]: 187.2 mg/dL
IP [5]: 7.2 mg/dL
K [5]: 4.3 meq/L
LDH [5]: 266.6 IU/L
Na [5]: 143.2 meq/L
PL [5]: 146.2 mg/dL
RALB [5]: 3.2 g/dL
TBIL [5]: 0.002 mg/dL
TC [5]: 77.2 mg/dL
TG [5]: 102.2 mg/dL
TP [5]: 5.6 g/dL
gamma-GTP [5]: 1.2 IU/L
TERMINAL_BW [6]: 237.7 g
TERMINAL_BW [7]: 274.7 g
TERMINAL_BW [8]: 367.4 g
APTT [6]: 21.4 s
Bas [6]: 0%
Eos [6]: 0.8%
Fbg [6]: 315.6 mg/dL
Hb [6]: 13.4 g/dL
Ht [6]: 37.5%
Lym [6]: 83.6%
MCH [6]: 21.3 pg
MCHC [6]: 35.6%
MCV [6]: 59.7 fL
Mono [6]: 2.2%
Neu [6]: 12.6%
PT [6]: 15.4 s
Plat [6]: 114 x10_4/uL
RBC [6]: 628.6 x10_4/ul
Ret [6]: 5.1%
WBC [6]: 110.8 x10_2/uL
APTT [7]: 22.2 s
Bas [7]: 0%
Eos [7]: 1%
Fbg [7]: 289.4 mg/dL
Hb [7]: 13.8 g/dL
Ht [7]: 40%
Lym [7]: 81.6%
MCH [7]: 20.1 pg
MCHC [7]: 34.6%
MCV [7]: 58 fL
Mono [7]: 2.2%
Neu [7]: 14.8%
PT [7]: 15.7 s
Plat [7]: 118.3 x10_4/uL
RBC [7]: 690.8 x10_4/ul
Ret [7]: 4.7%
WBC [7]: 112.4 x10_2/uL
APTT [8]: 22.6 s
Bas [8]: 0%
Eos [8]: 1%
Fbg [8]: 317 mg/dL
Hb [8]: 13.7 g/dL
Ht [8]: 39%
Lym [8]: 78.8%
MCH [8]: 20 pg
MCHC [8]: 35.1%
MCV [8]: 56.8 fL
Mono [8]: 2%
Neu [8]: 17%
PT [8]: 15.8 s
Plat [8]: 111.4 x10_4/uL
RBC [8]: 687.6 x10_4/ul
Ret [8]: 4.7%
WBC [8]: 109.2 x10_2/uL
KIDNEY_L [6]: 1 g
KIDNEY_R [6]: 1 g
KIDNEY_TOTAL [6]: 2.1 g
KIDNEY_L [7]: 1.1 g
KIDNEY_R [7]: 1.1 g
KIDNEY_TOTAL [7]: 2.2 g
KIDNEY_L [8]: 1.3 g
KIDNEY_R [8]: 1.3 g
KIDNEY_TOTAL [8]: 2.6 g
LIVER [6]: 10.7 g
LIVER [7]: 11.9 g
LIVER [8]: 14.7 g
A/G [6]: 1.2
ALP [6]: 1548 IU/L
ALT [6]: 39.8 IU/L
AST [6]: 72.8 IU/L
BUN [6]: 18 mg/dL
CRE [6]: 0.2 mg/dL
Ca [6]: 10.6 mg/dL
Cl [6]: 107.6 meq/L
DBIL [6]: 0 mg/dL
GLC [6]: 189.4 mg/dL
IP [6]: 6.5 mg/dL
K [6]: 4.3 meq/L
LDH [6]: 234.6 IU/L
Na [6]: 141 meq/L
PL [6]: 153.2 mg/dL
RALB [6]: 3.1 g/dL
TBIL [6]: 0.002 mg/dL
TC [6]: 76.8 mg/dL
TG [6]: 125.8 mg/dL
TP [6]: 5.6 g/dL
gamma-GTP [6]: 1.4 IU/L
A/G [7]: 1.1
ALP [7]: 1195.8 IU/L
ALT [7]: 41 IU/L
AST [7]: 69 IU/L
BUN [7]: 18 mg/dL
CRE [7]: 0.2 mg/dL
Ca [7]: 10.5 mg/dL
Cl [7]: 107.4 meq/L
DBIL [7]: 0 mg/dL
GLC [7]: 180 mg/dL
IP [7]: 6.5 mg/dL
K [7]: 4.3 meq/L
LDH [7]: 160.8 IU/L
Na [7]: 141.2 meq/L
PL [7]: 161 mg/dL
RALB [7]: 3 g/dL
TBIL [7]: 0.004 mg/dL
TC [7]: 80.6 mg/dL
TG [7]: 148 mg/dL
TP [7]: 5.7 g/dL
gamma-GTP [7]: 2.2 IU/L
A/G [8]: 1.1
ALP [8]: 1033.6 IU/L
ALT [8]: 42.6 IU/L
AST [8]: 71.8 IU/L
BUN [8]: 18 mg/dL
CRE [8]: 0.2 mg/dL
Ca [8]: 10.6 mg/dL
Cl [8]: 106.6 meq/L
DBIL [8]: 0 mg/dL
GLC [8]: 191 mg/dL
IP [8]: 6.2 mg/dL
K [8]: 4.3 meq/L
LDH [8]: 167.4 IU/L
Na [8]: 142 meq/L
PL [8]: 151.6 mg/dL
RALB [8]: 3.2 g/dL
TBIL [8]: 0.02 mg/dL
TC [8]: 77.6 mg/dL
TG [8]: 135.6 mg/dL
TP [8]: 6 g/dL
gamma-GTP [8]: 2 IU/L
